Key:
Test in all cases: Biological Example 1B glasshouse assay, pre-emergence application
Type in all cases: in vivo
Conditions in all cases: 250 g/ha, 13 days after application
[1] = system: Abutilon theophrasti (ABUTH)
In short: (§1)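 Potted plants receive the test herbicide as a spray from an acetone/water 50:50 solution with 0.5% Tween 20, either one day after sowing or after eight days of growth. Scoring is visual percentage injury 13 days post-application, generally on a single plant per species and rate.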

[2] = system: Alopecurus myosuroides (ALOMY)
In short: as §1

[3] = system: Amaranthus retroflexus (AMARE)
In short: as §1

[4] = system: Echinochloa crus-galli (ECHCG)
In short: as §1

Setaria faberi (SETFA) = system: Setaria faberi (SETFA)
In short: as §1

C#CCC1CC(=O)C(c2c(F)cc(C#CC)cc2OC)C1=O (centres unmarked) [Compound A8, 2-(2-fluoro-6-methoxy-4-prop-1-ynyl-phenyl)-4-prop-2-ynyl-cyclopentane-1,3-dione]
Percentage phytotoxicity ABUTH [1]: 0%
Percentage phytotoxicity ALOMY [2]: 90%
Percentage phytotoxicity AMARE [3]: 0%
Percentage phytotoxicity ECHCG [4]: 100%
Percentage phytotoxicity SETFA (Setaria faberi (SETFA)): 90%

Reference: patent publication US10696686B2, “Herbicidally active (alkynyl-phenyl)-substituted cyclic dione compounds and derivatives thereof” (Syngenta Limited, priority 2013, dated 2020)
